Source: patent US9409866B2, “Pyridine-2-amides useful as CB2 agonists” (Hoffmann-La Roche Inc., priority 2012, dated 2016)
Read-outs that look alike come from different tables or passages of the source.

Tests used:
human CB2 receptors = human CB2 receptors (Homo sapiens (Human), UniProt P34972); assay: functional cAMP assay, CHO cells expressing human CB2; format: cell-based
Method in brief: (§1)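 Readout: TR-FRET cAMP detection at 730 and 645 nm with 355 nm excitation, quantified from a standard curve spanning 10 μM to 0.13 nM cAMP. Human CB1- or CB2-expressing CHO cells were exposed to compound for 30 min at 30 °C in KRB buffer containing 1 mM IBMX. EC50 derived.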

human CB1 receptors = human CB1 receptors (Homo sapiens (Human), UniProt P21554); assay: functional cAMP assay, CHO cells expressing human CB1; format: cell-based
Chain of human CB1 receptors (P21554 whole entry): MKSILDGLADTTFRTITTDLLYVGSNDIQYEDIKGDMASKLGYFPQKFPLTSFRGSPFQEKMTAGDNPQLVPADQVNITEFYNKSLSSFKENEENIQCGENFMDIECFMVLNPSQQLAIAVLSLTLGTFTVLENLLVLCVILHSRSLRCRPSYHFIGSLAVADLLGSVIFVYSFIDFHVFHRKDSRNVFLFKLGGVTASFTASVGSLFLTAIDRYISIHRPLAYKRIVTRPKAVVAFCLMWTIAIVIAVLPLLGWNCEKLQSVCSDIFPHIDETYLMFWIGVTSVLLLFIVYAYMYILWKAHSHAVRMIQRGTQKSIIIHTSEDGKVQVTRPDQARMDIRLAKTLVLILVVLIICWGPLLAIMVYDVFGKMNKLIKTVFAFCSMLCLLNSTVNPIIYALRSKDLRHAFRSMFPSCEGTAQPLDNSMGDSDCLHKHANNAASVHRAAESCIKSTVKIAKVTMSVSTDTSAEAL
Method in brief: as §1

[1] = functional cAMP assay, CHO cells expressing human CB1; read-out: Human CB1 EC50
[2] = read-out: Human CB1 EC50; functional cAMP assay, CHO cells expressing human CB1
[3] = Human CB1 EC50 (uM), functional cAMP assay, CHO cells expressing human CB1

Chain of human CB2 receptors (P34972 whole entry): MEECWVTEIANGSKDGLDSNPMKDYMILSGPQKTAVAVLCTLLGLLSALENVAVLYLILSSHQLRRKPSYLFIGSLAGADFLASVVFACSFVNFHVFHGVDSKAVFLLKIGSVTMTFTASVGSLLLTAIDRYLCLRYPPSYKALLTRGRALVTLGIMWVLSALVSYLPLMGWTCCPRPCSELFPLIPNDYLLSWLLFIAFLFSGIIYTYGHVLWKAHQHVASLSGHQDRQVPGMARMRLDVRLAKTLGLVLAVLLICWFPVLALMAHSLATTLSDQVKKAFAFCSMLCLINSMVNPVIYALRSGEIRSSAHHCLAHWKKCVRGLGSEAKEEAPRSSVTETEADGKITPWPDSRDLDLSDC

| Compound | EC50 (human CB2 receptors; read-out: Human CB2 EC50) | EC50 (human CB1 receptors; [1]) | EC50 (human CB2 receptors; Human CB2 EC50 (uM)) | EC50 (human CB1 receptors; [2]) | EC50 (human CB1 receptors; [3]) |
| --- | --- | --- | --- | --- | --- |
| C[C@H](Oc1cc(C(=O)NC(C(N)=O)C2(C)COC2)ncc1C1CC1)C(F)(F)F (stereo partly drawn) [Example 251, N-[2-amino-1-(3-methyloxetan-3-yl)-2-oxoethyl]-5-cyclopropyl-4-[(2S)-1,1,1-trifluoropropan-2-yl]oxypyridine-2-carboxamide] | 0.0089 µM | > 10 µM |  |  |  |
| NC(=O)CC1(NC(=O)c2cc(OCC(F)(F)F)c(C3(F)CCC3)cn2)CS(=O)(=O)C1 [Example 286, N-[3-(2-amino-2-oxoethyl)-1,1-dioxothietan-3-yl]-5-(1-fluorocyclobutyl)-4-(2,2,2-trifluoroethoxy)pyridine-2-carboxamide] | 0.0459 µM | > 10 µM |  |  |  |
| Cc1nc(C(C)(CC2CC2)NC(=O)c2cc(OCC(F)(F)F)c(C3(O)COC3)cn2)no1 (stereo not drawn) [Example 123, N-[1-cyclopropyl-2-(5-methyl-1,2,4-oxadiazol-3-yl)propan-2-yl]-5-(3-hydroxyoxetan-3-yl)-4-(2,2,2-trifluoroethoxy)pyridine-2-carboxamide] | 0.998 µM | > 10 µM |  |  |  |
| O=C(c1cc(OCC(F)(F)F)c(C2CC2)cn1)N1CCCC12COC2 [Example 71, [5-Cyclopropyl-4-(2,2,2-trifluoro-ethoxy)-pyridin-2-yl]-(2-oxa-5-aza-spiro[3.4]oct-5-yl)-methanone] | 0.586 µM | > 10 µM |  |  |  |
| Cc1csc(C(C)(CC2CC2)NC(=O)c2cc(OCC(F)(F)F)c(C3CC3)cn2)n1 (stereo not drawn) [Example 158, 5-cyclopropyl-N-[1-cyclopropyl-2-(4-methyl-1,3-thiazol-2-yl)propan-2-yl]-4-(2,2,2-trifluoroethoxy)pyridine-2-carboxamide] | 0.0958 µM | > 10 µM |  |  |  |
| NC(=O)[C@H]1CC(F)(F)CN1C(=O)c1cc(OCC(F)(F)F)c(C2CC2)cn1 [Example 122, (2R)-1-[5-cyclopropyl-4-(2,2,2-trifluoroethoxy)pyridine-2-carbonyl]-4,4-difluoropyrrolidine-2-carboxamide] | 0.399 µM | > 10 µM |  |  |  |
| Cc1nc(C(NC(=O)c2cc(OCC(F)(F)F)c(C3CC3)cn2)C(C)(C)C)no1 (single isomer, unassigned) [Example 212, 5-cyclopropyl-N-[2,2-dimethyl-1-(5-methyl-1,2,4-oxadiazol-3-yl)propyl]-4-(2,2,2-trifluoroethoxy)pyridine-2-carboxamide] |  |  | 0.005 µM | > 10 µM |  |
| CNC(=O)C(NC(=O)c1cc(O[C@@H](C)C(F)(F)F)c(C2CC2)cn1)C(C)(C)C (stereo partly drawn) [Example 200, 5-cyclopropyl-N-[3,3-dimethyl-1-(methylamino)-1-oxobutan-2-yl]-4-[(2S)-1,1,1-trifluoropropan-2-yl]oxypyridine-2-carboxamide] | 0.0026 µM | > 10 µM |  |  |  |
| Cc1nc([C@](C)(CC2CC2)NC(=O)c2cc(OCC(F)(F)F)c(C3CC3)cn2)no1 (single isomer, unassigned; enantiomer b) [Example 67, 5-Cyclopropyl-4-(2,2,2-trifluoro-ethoxy)-pyridine-2-carboxylic acid [2-cyclopropyl-1-methyl-1-(5-methyl-[1,2,4]oxadiazol-3-yl)-ethyl]-amide (enantiomer B)] |  |  | 0.0037 µM |  | 5.28 µM |
| Cc1nc(C(C)(CC2CC2)NC(=O)c2cc(OCC(F)(F)F)c(N3CC(F)(F)C3)cn2)no1 (stereo not drawn) [Example 90, 5-(3,3-Difluoro-azetidin-1-yl)-4-(2,2,2-trifluoro-ethoxy)-pyridine-2-carboxylic acid [2-cyclopropyl-1-methyl-1-(5-methyl-[1,2,4]oxadiazol-3-yl)-ethyl]-amide] | 0.0177 µM | > 10 µM |  |  |  |
| Cn1nnnc1C(NC(=O)c1cc(OCC(F)(F)F)c(C2CC2)cn1)C(C)(C)C (single isomer, unassigned) [Example 205, 5-cyclopropyl-N-[2,2-dimethyl-1-(1-methyltetrazol-5-yl)propyl]-4-(2,2,2-trifluoroethoxy)pyridine-2-carboxamide] |  |  | 0.108 µM |  | > 10 µM |
| CNC(=O)C(NC(=O)c1cc(OCC(F)(F)F)c(C2CC2)cn1)C(C)(C)C (single isomer, unassigned) [Example 225, 5-cyclopropyl-N-[3,3-dimethyl-1-(methylamino)-1-oxobutan-2-yl]-4-(2,2,2-trifluoroethoxy)pyridine-2-carboxamide] |  |  | 0.0004 µM | > 10 µM |  |
| Cc1nc(C(C)(CS(C)(=O)=O)NC(=O)c2cc(OC(C)CF)c(C3CC3)cn2)no1 (single isomer, unassigned) [Example 298, 5-cyclopropyl-4-(1-fluoropropan-2-yloxy)-N-(2-(5-methyl-1,2,4-oxadiazol-3-yl)-1-(methylsulfonyl)propan-2-yl)picolinamide] | 0.0579 µM |  |  | > 10 µM |  |
| O=C(NCC1(O)CCCC1)c1cc(OCC2CC2)c(C2CC2)cn1 [Example 56, 5-Cyclopropyl-4-cyclopropylmethoxy-pyridine-2-carboxylic acid (1-hydroxy-cyclopentylmethyl)-amide] | 0.0181 µM | > 10 µM |  |  |  |
| Cc1nc([C@@](C)(NC(=O)c2cc(OCC(F)(F)F)c(C3CC3)cn2)C2CC2)no1 (single isomer, unassigned; enantiomer a) [Example 61, 5-Cyclopropyl-4-(2,2,2-trifluoro-ethoxy)-pyridine-2-carboxylic acid [1-cyclopropyl-1-(5-methyl-[1,2,4]oxadiazol-3-yl)-ethyl]-amide (enantiomer A)] |  |  | 0.0276 µM |  | > 10 µM |
| Cc1nc([C@@](C)(NC(=O)c2cc(OCC(F)(F)F)c(Cl)cn2)C2CC2)no1 (single isomer, unassigned; enantiomer b) [Example 75, 5-Chloro-4-(2,2,2-trifluoro-ethoxy)-pyridine-2-carboxylic acid [1-cyclopropyl-1-(5-methyl-[1,2,4]oxadiazol-3-yl)-ethyl]-amide (enantiomer B)] |  |  | 0.11 µM |  | > 10 µM |
| CNC(=O)CC(C)(NC(=O)c1cc(O[C@@H](C)C(F)(F)F)c(C2CC2)cn1)C1CC1 (stereo partly drawn) [Example 250, 5-cyclopropyl-N-[2-cyclopropyl-4-(methylamino)-4-oxobutan-2-yl]-4-[(2S)-1,1,1-trifluoropropan-2-yl]oxypyridine-2-carboxamide] | 0.0332 µM | > 10 µM |  |  |  |
| CNC(=O)C(C)(CC1CC1)NC(=O)c1cc(OCC(F)(F)F)c(C2CC2)cn1 (stereo not drawn) [Example 189, 5-cyclopropyl-N-[3-cyclopropyl-2-methyl-1-(methylamino)-1-oxopropan-2-yl]-4-(2,2,2-trifluoroethoxy)pyridine-2-carboxamide] | 0.292 µM | > 10 µM |  |  |  |
| Cc1nc(C(C)(NC(=O)c2cc(OCC(F)(F)F)c(C3(F)COC3)cn2)C2CC2)no1 (single isomer, unassigned) [Example 166, N-[1-cyclopropyl-1-(5-methyl-1,2,4-oxadiazol-3-yl)ethyl]-5-(3-fluorooxetan-3-yl)-4-(2,2,2-trifluoroethoxy)pyridine-2-carboxamide] |  |  | 0.31 µM |  | > 10 µM |
| C[C@H](Oc1cc(C(=O)NC2(CC(N)=O)COC2)ncc1C1CC1)C(F)(F)F [Example 64, 5-Cyclopropyl-4-((S)-2,2,2-trifluoro-1-methyl-ethoxy)-pyridine-2-carboxylic acid (3-carbamoylmethyl-oxetan-3-yl)-amide] | 0.515 µM | > 10 µM |  |  |  |
| Cc1nc(C(C)(NC(=O)c2cc(OCC(F)(F)F)c(N3CCC(F)(F)C3)cn2)C2CC2)no1 (stereo not drawn) [Example 79, 5-(3,3-Difluoro-pyrrolidin-1-yl)-4-(2,2,2-trifluoro-ethoxy)-pyridine-2-carboxylic acid [1-cyclopropyl-1-(5-methyl-[1,2,4]oxadiazol-3-yl)-ethyl]-amide] | 0.0065 µM | 0.19 µM |  |  |  |
| Cc1nnc(C(NC(=O)c2cc(O[C@@H](C)C(F)(F)F)c(C3(F)COC3)cn2)C(C)(C)C)o1 (stereo partly drawn) [Example 175, N-[2,2-dimethyl-1-(5-methyl-1,3,4-oxadiazol-2-yl)propyl]-5-(3-fluorooxetan-3-yl)-4-[(2S)-1,1,1-trifluoropropan-2-yl]oxypyridine-2-carboxamide] | 0.0955 µM | > 10 µM |  |  |  |
| CCCC(C)(CO)NC(=O)c1cc(OCC2CC2)c(Cl)cn1 (stereo not drawn) [Example 33, 5-Chloro-4-cyclopropylmethoxy-pyridine-2-carboxylic acid (1-hydroxymethyl-1-methyl-butyl)-amide] | 0.0244 µM | > 10 µM |  |  |  |
| Cc1nc(C(C)(CC2CC2)NC(=O)c2cc(O[C@@H](C)C(F)(F)F)c(C3CCC3)cn2)no1 (stereo partly drawn) [Example 120, 5-cyclobutyl-N-[1-cyclopropyl-2-(5-methyl-1,2,4-oxadiazol-3-yl)propan-2-yl]-4-[(2S)-1,1,1-trifluoropropan-2-yl]oxypyridine-2-carboxamide] | 0.0008 µM | > 10 µM |  |  |  |
| Cc1csc(C2(NC(=O)c3cc(OCC(F)(F)F)c(C4CC4)cn3)CCOCC2)n1 [Example 152, 5-cyclopropyl-N-[4-(4-methyl-1,3-thiazol-2-yl)oxan-4-yl]-4-(2,2,2-trifluoroethoxy)pyridine-2-carboxamide] | 0.185 µM | > 10 µM |  |  |  |
| Cc1nc(C(C)(NC(=O)c2cc(OCC(F)(F)F)c(C3CC3)cn2)C(=O)N2CC3(COC3)C2)no1 (stereo not drawn) [Example 148, 5-cyclopropyl-N-[2-(5-methyl-1,2,4-oxadiazol-3-yl)-1-(2-oxa-6-azaspiro[3.3]heptan-6-yl)-1-oxopropan-2-yl]-4-(2,2,2-trifluoroethoxy)pyridine-2-carboxamide] | 0.205 µM | > 10 µM |  |  |  |
| C[C@H](Oc1cc(C(=O)NC(C)(C#N)CC2CC2)ncc1C1(F)COC1)C(F)(F)F (stereo partly drawn) [Example 143, N-(2-cyano-1-cyclopropylpropan-2-yl)-5-(3-fluorooxetan-3-yl)-4-[(2S)-1,1,1-trifluoropropan-2-yl]oxypyridine-2-carboxamide] | 0.246 µM | > 10 µM |  |  |  |
